According to PubChem BioAssay AID2060910 (Molecular Pharmacology Branch, DTP, NCI, 2025):

Tested on: 242566-281-R-J2-PDC complex spheroid viability
Assay: Anticancer human tumor 242566-281-R-J2-PDC patient-derived pancreatic carcinoma cell line growth inhibition [RAS]
Conditions: for IC50: curve of first compound; for viability, T/C: stronger effect = lower value
Procedure, shortened: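 Tumour cells grown as complex spheroids with HUVEC endothelial cells and mesenchymal stem cells, treated with RAS pathway inhibitor combinations. Each agent spans half-log steps from near clinical Cmax, or 10 microM where Cmax is unknown.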

[1] = second compound 0.000949 µM, first compound 0.0316 µM
[2] = second compound 0.000949 µM, first compound 0.1 µM
[3] = second compound 0.000949 µM, first compound 0.316 µM
[4] = second compound 0.000949 µM, first compound 1 µM
[5] = second compound 0.003 µM, first compound 0.0316 µM
[6] = second compound 0.003 µM, first compound 0.1 µM
[7] = second compound 0.003 µM, first compound 0.316 µM
[8] = second compound 0.003 µM, first compound 1 µM
[9] = second compound 0.00949 µM, first compound 0.0316 µM
[10] = second compound 0.00949 µM, first compound 0.1 µM
[11] = second compound 0.00949 µM, first compound 0.316 µM
[12] = second compound 0.00949 µM, first compound 1 µM
[13] = second compound 0.03 µM, first compound 0.0316 µM
[14] = second compound 0.03 µM, first compound 0.1 µM
[15] = second compound 0.03 µM, first compound 0.316 µM
[16] = second compound 0.03 µM, first compound 1 µM
[17] = second compound 0.0949 µM, first compound 0.0316 µM
[18] = second compound 0.0949 µM, first compound 0.1 µM
[19] = second compound 0.0949 µM, first compound 0.316 µM
[20] = second compound 0.0949 µM, first compound 1 µM
[21] = second compound 0.3 µM, first compound 0.0316 µM
[22] = second compound 0.3 µM, first compound 0.1 µM
[23] = second compound 0.3 µM, first compound 0.316 µM
[24] = second compound 0.3 µM, first compound 1 µM
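Note: spheroids exposed to compound for 7 days before readout.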
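Throughout, for viability, T/C: 100% = DMSO vehicle control wells.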

## CC(=O)OC12COC1CC(O)C1(C)C(=O)C(O)C3=C(C)C(OC(=O)C(O)C(NC(=O)OC(C)(C)C)c4ccccc4)CC(O)(C(OC(=O)c4ccccc4)C21)C3(C)C (stereo unspecified) + CCn1c(-c2cc(N3CCN(C)CC3)cnc2C(C)OC)c2c3cc(ccc31)-c1csc(n1)CC(NC(=O)C1CC1C)C(=O)N1CCCC(N1)C(=O)OCC(C)(C)C2
Second compound 0.000949 µM
  IC50: < 31.6 nM
Second compound 0.003 µM
  IC50: < 31.6 nM
Second compound 0.00949 µM
  IC50: < 31.6 nM
Second compound 0.03 µM
  IC50: < 31.6 nM
Second compound 0.0949 µM
  IC50: < 31.6 nM
Second compound 0.3 µM
  IC50: < 31.6 nM
[1]
  viability, T/C: 38.4%
[2]
  viability, T/C: 32.3%
[3]
  viability, T/C: 21.8%
[4]
  viability, T/C: 32.2%
Second compound 0.000949 µM, first compound 3.16 µM
  viability, T/C: 31.9%
Second compound 0.000949 µM, first compound 10 µM
  viability, T/C: 27.6%
[5]
  viability, T/C: 34.2%
[6]
  viability, T/C: 23.3%
[7]
  viability, T/C: 22.6%
[8]
  viability, T/C: 26.7%
Second compound 0.003 µM, first compound 3.16 µM
  viability, T/C: 32.5%
Second compound 0.003 µM, first compound 10 µM
  viability, T/C: 25.2%
[9]
  viability, T/C: 26%
[10]
  viability, T/C: 19%
[11]
  viability, T/C: 21.9%
[12]
  viability, T/C: 20.2%
Second compound 0.00949 µM, first compound 3.16 µM
  viability, T/C: 20.9%
Second compound 0.00949 µM, first compound 10 µM
  viability, T/C: 16.8%
[13]
  viability, T/C: 19.1%
[14]
  viability, T/C: 16.3%
[15]
  viability, T/C: 17.9%
[16]
  viability, T/C: 19%
Second compound 0.03 µM, first compound 3.16 µM
  viability, T/C: 11.6%
Second compound 0.03 µM, first compound 10 µM
  viability, T/C: 10%
[17]
  viability, T/C: 11.7%
[18]
  viability, T/C: 11.9%
[19]
  viability, T/C: 13.4%
[20]
  viability, T/C: 10.5%
Second compound 0.0949 µM, first compound 3.16 µM
  viability, T/C: 6.83%
Second compound 0.0949 µM, first compound 10 µM
  viability, T/C: 6.76%
[21]
  viability, T/C: 9.32%
[22]
  viability, T/C: 9.15%
[23]
  viability, T/C: 7.89%
[24]
  viability, T/C: 8.09%
Second compound 0.3 µM, first compound 3.16 µM
  viability, T/C: 7.91%
Second compound 0.3 µM, first compound 10 µM
  viability, T/C: 6.31%

## CCc1c2c(nc3ccc(O)cc13)-c1cc3c(c(=O)n1C2)COC(=O)[C@]3(O)CC + CCn1c(-c2cc(N3CCN(C)CC3)cnc2C(C)OC)c2c3cc(ccc31)-c1csc(n1)CC(NC(=O)C1CC1C)C(=O)N1CCCC(N1)C(=O)OCC(C)(C)C2
Second compound 0.000949 µM
  IC50: 14.5 nM
Second compound 0.003 µM
  IC50: 6.76 nM
Second compound 0.00949 µM
  IC50: < 0.949 nM
Second compound 0.03 µM
  IC50: < 0.949 nM
Second compound 0.0949 µM
  IC50: < 0.949 nM
Second compound 0.3 µM
  IC50: < 0.949 nM
Second compound 0.000949 µM, first compound 0.000949 µM
  viability, T/C: 101%
Second compound 0.000949 µM, first compound 0.003 µM
  viability, T/C: 89%
Second compound 0.000949 µM, first compound 0.00949 µM
  viability, T/C: 49.6%
Second compound 0.000949 µM, first compound 0.03 µM
  viability, T/C: 40.2%
Second compound 0.000949 µM, first compound 0.0949 µM
  viability, T/C: 22.3%
Second compound 0.000949 µM, first compound 0.3 µM
  viability, T/C: 9.11%
Second compound 0.003 µM, first compound 0.000949 µM
  viability, T/C: 92.3%
Second compound 0.003 µM, first compound 0.003 µM
  viability, T/C: 62.8%
Second compound 0.003 µM, first compound 0.00949 µM
  viability, T/C: 43.8%
Second compound 0.003 µM, first compound 0.03 µM
  viability, T/C: 29.8%
Second compound 0.003 µM, first compound 0.0949 µM
  viability, T/C: 19.4%
Second compound 0.003 µM, first compound 0.3 µM
  viability, T/C: 8.62%
Second compound 0.00949 µM, first compound 0.000949 µM
  viability, T/C: 48.8%
Second compound 0.00949 µM, first compound 0.003 µM
  viability, T/C: 39.1%
Second compound 0.00949 µM, first compound 0.00949 µM
  viability, T/C: 38.8%
Second compound 0.00949 µM, first compound 0.03 µM
  viability, T/C: 24.8%
Second compound 0.00949 µM, first compound 0.0949 µM
  viability, T/C: 17.9%
Second compound 0.00949 µM, first compound 0.3 µM
  viability, T/C: 12.2%
Second compound 0.03 µM, first compound 0.000949 µM
  viability, T/C: 33%
Second compound 0.03 µM, first compound 0.003 µM
  viability, T/C: 32.8%
Second compound 0.03 µM, first compound 0.00949 µM
  viability, T/C: 27%
Second compound 0.03 µM, first compound 0.03 µM
  viability, T/C: 21.1%
Second compound 0.03 µM, first compound 0.0949 µM
  viability, T/C: 13.9%
Second compound 0.03 µM, first compound 0.3 µM
  viability, T/C: 11.9%
Second compound 0.0949 µM, first compound 0.000949 µM
  viability, T/C: 22.9%
Second compound 0.0949 µM, first compound 0.003 µM
  viability, T/C: 24.1%
Second compound 0.0949 µM, first compound 0.00949 µM
  viability, T/C: 21.8%
Second compound 0.0949 µM, first compound 0.03 µM
  viability, T/C: 15.9%
Second compound 0.0949 µM, first compound 0.0949 µM
  viability, T/C: 11.2%
Second compound 0.0949 µM, first compound 0.3 µM
  viability, T/C: 9.7%
Second compound 0.3 µM, first compound 0.000949 µM
  viability, T/C: 22.7%
Second compound 0.3 µM, first compound 0.003 µM
  viability, T/C: 20.4%
Second compound 0.3 µM, first compound 0.00949 µM
  viability, T/C: 18.1%
Second compound 0.3 µM, first compound 0.03 µM
  viability, T/C: 12.5%
Second compound 0.3 µM, first compound 0.0949 µM
  viability, T/C: 13.3%
Second compound 0.3 µM, first compound 0.3 µM
  viability, T/C: 8.58%

## Nc1ccn(C2OC(CO)C(O)C2(F)F)c(=O)n1 (stereo unspecified) + CCn1c(-c2cc(N3CCN(C)CC3)cnc2C(C)OC)c2c3cc(ccc31)-c1csc(n1)CC(NC(=O)C1CC1C)C(=O)N1CCCC(N1)C(=O)OCC(C)(C)C2
Second compound 0.000949 µM
  IC50: 40.1 nM
Second compound 0.003 µM
  IC50: 22.8 nM
Second compound 0.00949 µM
  IC50: < 3.16 nM
Second compound 0.03 µM
  IC50: < 3.16 nM
Second compound 0.0949 µM
  IC50: < 3.16 nM
Second compound 0.3 µM
  IC50: < 3.16 nM
Second compound 0.000949 µM, first compound 0.00316 µM
  viability, T/C: 94.2%
Second compound 0.000949 µM, first compound 0.01 µM
  viability, T/C: 87.7%
[1]
  viability, T/C: 46.2%
[2]
  viability, T/C: 36.5%
[3]
  viability, T/C: 20.9%
[4]
  viability, T/C: 10.3%
Second compound 0.003 µM, first compound 0.00316 µM
  viability, T/C: 78.2%
Second compound 0.003 µM, first compound 0.01 µM
  viability, T/C: 57.9%
[5]
  viability, T/C: 43.5%
[6]
  viability, T/C: 35.3%
[7]
  viability, T/C: 24.3%
[8]
  viability, T/C: 10.9%
Second compound 0.00949 µM, first compound 0.00316 µM
  viability, T/C: 50.5%
Second compound 0.00949 µM, first compound 0.01 µM
  viability, T/C: 36.2%
[9]
  viability, T/C: 38.3%
[10]
  viability, T/C: 28.5%
[11]
  viability, T/C: 20.7%
[12]
  viability, T/C: 16.6%
Second compound 0.03 µM, first compound 0.00316 µM
  viability, T/C: 30.6%
Second compound 0.03 µM, first compound 0.01 µM
  viability, T/C: 27.1%
[13]
  viability, T/C: 25.5%
[14]
  viability, T/C: 20.9%
[15]
  viability, T/C: 16.9%
[16]
  viability, T/C: 16.7%
Second compound 0.0949 µM, first compound 0.00316 µM
  viability, T/C: 22.3%
Second compound 0.0949 µM, first compound 0.01 µM
  viability, T/C: 21.4%
[17]
  viability, T/C: 21.3%
[18]
  viability, T/C: 19.2%
[19]
  viability, T/C: 11.7%
[20]
  viability, T/C: 13.9%
Second compound 0.3 µM, first compound 0.00316 µM
  viability, T/C: 19.7%
Second compound 0.3 µM, first compound 0.01 µM
  viability, T/C: 18.2%
[21]
  viability, T/C: 18.5%
[22]
  viability, T/C: 14.5%
[23]
  viability, T/C: 13.1%
[24]
  viability, T/C: 14.4%
